# Earlier results as cited in PubChem BioAssay AID1259409 (Chemical Carcinogenesis Research Information System (CCRIS), 2018).
# Several values for one entry are separate records, joined by “and”; a condition that tells them apart may be missing. Equal entries are not always repeated.
# Test system: rodent chemically induced tumor inhibition, incidence and multiplicity
# Test: CCRIS tumor inhibitor studies
# Settings: Species: RAT
structure (smiles),measurement,setting,value
Nc1nc(N)nc(-c2cc(Cl)ccc2Cl)n1,"tumour outcome (control, treated, inhibition, significance)","Carcinogen: DIETHYLNITROSAMINE, 55-18-5, Dose [Inhibitor]: 0, 125 PPM IN DIET BEGINNING 1 WK POST CARCINOGEN DOSE (STUDY DURATION: 36 WK), Route [Inhibitor]: ORAL, Strain/Sex: F344/MALE, Target Tissue: Type of Lesion: LIVER: TUMOR, Dose [Carcinogen]: 200 MG/KG BW ONCE, Promoter: PHENOBARBITAL, 50-06-6","14/14 (100%), 0/15 (0%), 100%, not calculated"
same,"tumour outcome (control, treated, inhibition, significance)","Carcinogen: N-METHYL-N'-NITRO-N-NITROSOGUANIDINE, 70-25-7, Dose [Inhibitor]: 0, 100 PPM IN DIET FOR FIRST 25 WK (STUDY DURATION: 55 WK), Route [Inhibitor]: ORAL, Strain/Sex: WISTAR/MALE, Target Tissue: Type of Lesion: DUODENUM: ADENOMA, ADENOCARCINOMA OR SARCOMA, Dose [Carcinogen]: 100 MG/L IN DRINKING WATER FOR FIRST 25 WK, Promoter: GLYOXAL, 107-22-2","6/12 (50%), 4/16 (25%), 50%, not significant"
same,"tumour outcome (control, treated, inhibition, significance)","Carcinogen: N-METHYL-N'-NITRO-N-NITROSOGUANIDINE, 70-25-7, Dose [Inhibitor]: 0, 100 PPM IN DIET FOR FIRST 25 WK (STUDY DURATION: 55 WK), Route [Inhibitor]: ORAL, Strain/Sex: WISTAR/MALE, Target Tissue: Type of Lesion: FORESTOMACH: PAPILLOMA, Dose [Carcinogen]: 100 MG/L IN DRINKING WATER FOR FIRST 25 WK, Promoter: GLYOXAL, 107-22-2","3/12 (25%), 1/16 (6%), 76%, not significant"
same,"tumour outcome (control, treated, inhibition, significance)","Carcinogen: N-METHYL-N'-NITRO-N-NITROSOGUANIDINE, 70-25-7, Dose [Inhibitor]: 0, 100 PPM IN DIET FOR FIRST 25 WK (STUDY DURATION: 55 WK), Route [Inhibitor]: ORAL, Strain/Sex: WISTAR/MALE, Target Tissue: Type of Lesion: GASTROINTESTINAL TRACT (UPPER): BENIGN OR MALIGNANT TUMOR, Dose [Carcinogen]: 100 MG/L IN DRINKING WATER FOR FIRST 25 WK, Promoter: GLYOXAL, 107-22-2","11/12 (92%), 9/16 (56%), 39%, p<0.05"
same,"tumour outcome (control, treated, inhibition, significance)","Carcinogen: N-METHYL-N'-NITRO-N-NITROSOGUANIDINE, 70-25-7, Dose [Inhibitor]: 0, 100 PPM IN DIET FOR FIRST 25 WK (STUDY DURATION: 55 WK), Route [Inhibitor]: ORAL, Strain/Sex: WISTAR/MALE, Target Tissue: Type of Lesion: GLANDULAR STOMACH: ADENOMA, ADENOCARCINOMA OR SARCOMA, Dose [Carcinogen]: 100 MG/L IN DRINKING WATER FOR FIRST 25 WK, Promoter: GLYOXAL, 107-22-2","9/12 (75%), 6/16 (38%), 49%, p<0.05"
same,"tumour outcome (control, treated, inhibition, significance)","Carcinogen: N-METHYL-N'-NITRO-N-NITROSOUGUANIDINE, 70-25-7, Dose [Inhibitor]: 0, 25 PPM IN DIET FOR THE DURATION OF THE STUDY (STUDY DURATION: 55 WK), Route [Inhibitor]: ORAL, Strain/Sex: WISTAR/MALE, Target Tissue: Type of Lesion: BILE DUCT: CHOLANGIOMA, Dose [Carcinogen]: 100 MG/L IN DRINKING WATER FOR FIRST 25 WK, Promoter: GLYOXAL, 107-22-2","1/12 (8%), 0/12 (0%), 100%, not significant"
same,"tumour outcome (control, treated, inhibition, significance)","Carcinogen: N-METHYL-N'-NITRO-N-NITROSOUGUANIDINE, 70-25-7, Dose [Inhibitor]: 0, 25 PPM IN DIET FOR THE DURATION OF THE STUDY (STUDY DURATION: 55 WK), Route [Inhibitor]: ORAL, Strain/Sex: WISTAR/MALE, Target Tissue: Type of Lesion: FORESTOMACH: PAPILLOMA, Dose [Carcinogen]: 100 MG/L IN DRINKING WATER FOR FIRST 25 WK, Promoter: GLYOXAL, 107-22-2","3/12 (25%), 1/12 (8%), 68%, not significant"
same,"tumour outcome (control, treated, inhibition, significance)","Carcinogen: N-METHYL-N'-NITRO-N-NITROSOUGUANIDINE, 70-25-7, Dose [Inhibitor]: 0, 25 PPM IN DIET FOR THE DURATION OF THE STUDY (STUDY DURATION: 55 WK), Route [Inhibitor]: ORAL, Strain/Sex: WISTAR/MALE, Target Tissue: Type of Lesion: GASTROINTESTINAL TRACT (UPPER): BENIGN OR MALIGNANT TUMOR, Dose [Carcinogen]: 100 MG/L IN DRINKING WATER FOR FIRST 25 WK, Promoter: GLYOXAL, 107-22-2","11/12 (92%), 7/12 (58%), 37%, not significant"
same,"tumour outcome (control, treated, inhibition, significance)","Carcinogen: N-METHYL-N'-NITRO-N-NITROSOUGUANIDINE, 70-25-7, Dose [Inhibitor]: 0, 25 PPM IN DIET FOR THE DURATION OF THE STUDY (STUDY DURATION: 55 WK), Route [Inhibitor]: ORAL, Strain/Sex: WISTAR/MALE, Target Tissue: Type of Lesion: GLANDULAR STOMACH: ADENOMA, ADENOCARCINOMA OR SARCOMA, Dose [Carcinogen]: 100 MG/L IN DRINKING WATER FOR FIRST 25 WK, Promoter: GLYOXAL, 107-22-2","9/12 (75%), 5/12 (42%), 44%, not significant"
same,"tumour outcome (control, treated, inhibition, significance)","Carcinogen: N-METHYL-N'-NITRO-N-NITROSOUGUANIDINE, 70-25-7, Dose [Inhibitor]: 0, 100 PPM IN DIET FOR FIRST 25 WK (STUDY DURATION: 55 WK), Route [Inhibitor]: ORAL, Strain/Sex: WISTAR/MALE, Target Tissue: Type of Lesion: BILE DUCT: CHOLANGIOMA, Dose [Carcinogen]: 100 MG/L IN DRINKING WATER FOR FIRST 25 WK, Promoter: GLYOXAL, 107-22-2","1/12 (8%), 0/12 (0%), 100%, not significant and 1/12 (8%), 0/15 (0%), 100%, not significant"
same,"tumour outcome (control, treated, inhibition, significance)","Carcinogen: N-METHYL-N'-NITRO-N-NITROSOUGUANIDINE, 70-25-7, Dose [Inhibitor]: 0, 100 PPM IN DIET FOR FIRST 25 WK (STUDY DURATION: 55 WK), Route [Inhibitor]: ORAL, Strain/Sex: WISTAR/MALE, Target Tissue: Type of Lesion: DUODENUM: ADENOMA, ADENOCARCINOMA OR SARCOMA, Dose [Carcinogen]: 100 MG/L IN DRINKING WATER FOR FIRST 25 WK, Promoter: GLYOXAL, 107-22-2","6/12 (50%), 4/12 (33%), 34%, not significant and 6/12 (50%), 4/15 (20%), 60%, not significant"
same,"tumour outcome (control, treated, inhibition, significance)","Carcinogen: N-METHYL-N'-NITRO-N-NITROSOUGUANIDINE, 70-25-7, Dose [Inhibitor]: 0, 100 PPM IN DIET FOR FIRST 25 WK (STUDY DURATION: 55 WK), Route [Inhibitor]: ORAL, Strain/Sex: WISTAR/MALE, Target Tissue: Type of Lesion: FORESTOMACH: PAPILLOMA, Dose [Carcinogen]: 100 MG/L IN DRINKING WATER FOR FIRST 25 WK, Promoter: GLYOXAL, 107-22-2","3/12 (25%), 3/12 (25%), 0%, not significant and 3/12 (25%), 1/15 (7%), 72%, not significant"
same,"tumour outcome (control, treated, inhibition, significance)","Carcinogen: N-METHYL-N'-NITRO-N-NITROSOUGUANIDINE, 70-25-7, Dose [Inhibitor]: 0, 100 PPM IN DIET FOR FIRST 25 WK (STUDY DURATION: 55 WK), Route [Inhibitor]: ORAL, Strain/Sex: WISTAR/MALE, Target Tissue: Type of Lesion: GASTROINTESTINAL TRACT (UPPER): BENIGN OR MALIGNANT TUMOR, Dose [Carcinogen]: 100 MG/L IN DRINKING WATER FOR FIRST 25 WK, Promoter: GLYOXAL, 107-22-2","11/12 (92%), 5/12 (42%), 54%, p<0.02 and 11/12 (92%), 6/15 (40%), 57%, p<0.01"
same,"tumour outcome (control, treated, inhibition, significance)","Carcinogen: N-METHYL-N'-NITRO-N-NITROSOUGUANIDINE, 70-25-7, Dose [Inhibitor]: 0, 100 PPM IN DIET FOR FIRST 25 WK (STUDY DURATION: 55 WK), Route [Inhibitor]: ORAL, Strain/Sex: WISTAR/MALE, Target Tissue: Type of Lesion: GLANDULAR STOMACH: ADENOMA, ADENOCARCINOMA OR SARCOMA, Dose [Carcinogen]: 100 MG/L IN DRINKING WATER FOR FIRST 25 WK, Promoter: GLYOXAL, 107-22-2","9/12 (75%), 3/12 (25%), 67%, p<0.02 and 9/12 (75%), 5/15 (33%), 56%, p<0.02"
O=C1NS(=O)(=O)c2ccccc21,"tumour outcome (control, treated, inhibition, significance)","Carcinogen: N-BUTYL-N-(4-HYDROXYBUTYL)NITROSAMINE, 3817-11-6, Dose [Inhibitor]: 0.5% DIET DAILY FOR 34 WK STARTING AT COMPLETION OF CARCINOGEN TREATMENT (STUDY DURATION: 38 WK), Route [Inhibitor]: ORAL, Strain/Sex: F344/MALE, Target Tissue: Type of Lesion: URINARY BLADDER: PAPILLOMA, Dose [Carcinogen]: 0.01% IN DRINKING WATER FOR 4 WK, Promoter: NONE USED","33%, 33%, 0%, not significant"
same,"tumour outcome (control, treated, inhibition, significance)","Carcinogen: N-BUTYL-N-(4-HYDROXYBUTYL)NITROSAMINE, 3817-11-6, Dose [Inhibitor]: 5% DIET DAILY FOR 34 WK STARTING AT COMPLETION OF CARCINOGEN TREATMENT (STUDY DURATION: 38 WK), Route [Inhibitor]: ORAL, Strain/Sex: F344/MALE, Target Tissue: Type of Lesion: URINARY BLADDER: PAPILLOMA, Dose [Carcinogen]: 0.01% IN DRINKING WATER FOR 4 WK, Promoter: NONE USED","33%, 20%, 39%, not significant"
CCNC(=O)[C@@H]1CCCN1C(=O)[C@H](CCCN=C(N)N)NC(=O)[C@H](CC(C)C)NC(=O)[C@@H](CC(C)C)NC(=O)[C@H](Cc1ccc(O)cc1)NC(=O)[C@H](CO)NC(=O)[C@H](Cc1c[nH]c2ccccc12)NC(=O)[C@H](Cc1cnc[nH]1)NC(=O)[C@@H]1CCC(=O)N1,"tumour outcome (control, treated, inhibition, significance)","Carcinogen: N-BUTYL-N-(4-HYDROXYBUTYL)NITROSAMINE, 3817-11-6, Dose [Inhibitor]: 0, 1 MG/KG 1/4 WK FOR 11 WK BEGINNING POST CARCINOGEN TREATMENT (STUDY DURATION: 21 WK), Route [Inhibitor]: SUBCUTANEOUS, Strain/Sex: WISTAR/MALE, Target Tissue: Type of Lesion: URINARY BLADDER:CARCINOMA, Dose [Carcinogen]: 0.05% IN DRINKING WATER FOR 10 WK, Promoter: NONE USED","15/17 (88%), 10/18 (56%), 36%, p<0.05"
